The values that follow come from paper PMC6838069, “Biochemical characterization and chemical validation of Leishmania MAP Kinase-3 as a potential drug target” (Scientific Reports, 2019).

This experiment addresses T1, LdMAPK3 (Leishmania donovani, UniProt A0A3S7WR45).
T1 construct: gene LdCL_100012100; pET-28a BamHI/HindIII, His6-tagged (~48 kDa on gel, tag not reported cut), E. coli BL21(DE3), Ni-NTA
T1 sequence (A0A3S7WR45 1-388): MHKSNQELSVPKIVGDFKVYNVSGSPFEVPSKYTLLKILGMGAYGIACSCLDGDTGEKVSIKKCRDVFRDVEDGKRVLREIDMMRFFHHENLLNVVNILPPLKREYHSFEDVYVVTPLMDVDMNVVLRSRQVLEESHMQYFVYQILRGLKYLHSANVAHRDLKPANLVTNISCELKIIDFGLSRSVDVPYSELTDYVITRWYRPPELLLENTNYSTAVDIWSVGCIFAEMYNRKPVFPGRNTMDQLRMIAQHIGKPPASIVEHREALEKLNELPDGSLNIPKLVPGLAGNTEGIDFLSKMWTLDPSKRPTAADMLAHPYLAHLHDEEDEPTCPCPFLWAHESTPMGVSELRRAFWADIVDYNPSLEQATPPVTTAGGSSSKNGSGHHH
Kind of experiment: Kinase-Glo Plus luminescent ATP depletion; Dixon plot. Type of experiment: biochemical. A general note: Kinase-Glo measures the ATP left after a reaction by luminescence.

Turning to `O=c1cc(-c2ccccc2)oc2cc(O)cc(O)c12` [CHY, 5,7-dihydroxyflavone], the Ki (in general, a dissociation constant, usually derived from enzyme kinetics or from competition with a known ligand) is 8.75 ± 0.11 µM.

`O=c1c(-c2ccc(O)cc2)coc2cc(O)cc(O)c12` [GEN, genistein]: the Ki stood at 3.76 ± 0.28 µM.
